Measured values: patent US20030055007A1, “Antimicrobial agents” (priority 2001, published 2003)
Values after ≈ are worked out from the molar mass of the structure shown. Read-outs that look alike come from different tables or passages of the source.

Key:
MT-4 cells [1] = system: MT-4 cells
[2] = system: AIDS virus (HIV-1, HIV-2); assay: Complete inhibitory activity against AIDS virus, MT-4 cells, 12-well microplate, 3- and 6-day culture; format: cell-based; details: for lowest sample concentration (circle-marked well) at which AIDS virus growth was inhibited completely (100%): MT-4 cells, 2-fold dilutions from 1000 μg/ml
MT-4 cells [3] = assay: Cell damage caused by the sample in the AIDS virus microplate test; details: for cell damage / cytotoxicity (in words): AIDS virus test
[4] = system: Influenza virus B/Hokkaidou/1/97; assay: microbe, parasite or virus in culture; format: cell-based; details: for MIC: unidentified influenza virus, read-out: Minimum inhibitory concentration (MIC)
[5] = system: Influenza virus A/Hokkaidou/1/97 (H3N2); assay: organism not typed; format: cell-based; details: for MIC: read-out: Minimum inhibitory concentration (MIC)
[6] = oral; cited from earlier work
[7] = system: Influenza virus A/Hokkaidou/1/96 (H1N1); assay: organism not typed; format: cell-based; details: for MIC: read-out: Minimum inhibitory concentration (MIC)
[8] = system: influenza virus (H1N1, H3N2, Type B); format: cell-based
E. coli O157 = format: cell-based; details: 30° C., 17 hours, 1:40 = 2 mg/ml, <40-fold = no complete inhibition at 1:40
P. aerginos = assay: Antibacterial activity test (2), dilution on agar culture medium; format: cell-based; details: 30° C., 17 hours, 1:40 = 2 mg/ml, <40-fold = no complete inhibition at 1:40
S. Enteritidis = assay: as above; format: cell-based; details: 30° C., 17 hours, 1:40 = 2 mg/ml, <40-fold = no complete inhibition at 1:40
K. pneumoniae = assay: as above; format: cell-based; details: 30° C., 17 hours, 1:40 = 2 mg/ml, <40-fold = no complete inhibition at 1:40
S. aureus = assay: as above; format: cell-based; details: 30° C., 17 hours, 1:40 = 2 mg/ml, <40-fold = no complete inhibition at 1:40
Protocol: Aqueous solutions of each specimen (powders) at a concentration of 8% was diluted 1:40 as the specimen stock solution for MIC measurement. The stock solution diluted at a graduation ratio of 1:40 to 1:400 and the stock solution were added to the agar culture medium on which 6 test […] were inoculated, and incubated at 30° C. for 17 hours. Growth inhibition bands were examined on the agar culture medium. The specimen stock solution was prepared by diluting 25 ml of 8% solution with 1000 cc of distilled water(1:40 dilution), which is converted into the amount per 2 mg/ml by solid content.
However, the remaining samples that were indicative of “<40-fold (lower than the 1:40 dilution)” were proven to have a certain degree of inhibitory effects. They are expected to show the complete inhibitory effects against the bacterial growth, by increasing the concentration level. As a consequence, the samples, 5, 6, 11-14 were recognized to have sufficient useful antibacterial activity.

B. subtilis = assay: as above; format: cell-based; details: 30° C., 17 hours, 1:40 = 2 mg/ml, <40-fold = no complete inhibition at 1:40
influenza virus = details: in vivo, po
[9] = H1N1, liquid samples, stock 10 μl/ml guaiacol, 2 μl/ml 2,6-dimethoxyphenol
[10] = H3N2, stock 10 mg/ml, read when virus multiplied to 100 TCID (3-4 days)
[11] = H1N1, stock 10 mg/ml, read when virus multiplied to 100 TCID (3-4 days)

COc1cc(C(O)C(CO)Oc2c(OC)cccc2OC)cc(OC)c1O (stereo not drawn) [SOS, syringylglycerol-β-syringyl ether, reference compound]
cell damage (MT-4 cells [1]): 31.3 μl/ml
viral (inhibitory) activity against AIDS virus ([2]; 3rd day of culture): 15.6 μl/ml

COc1cc(S(=O)(=O)[O-])ccc1O.COc1cc(S(=O)(=O)[O-])ccc1O.O.[K+].[K+] [guaiacol-4-sulfonate potassium salt 0.5-hydrate, reference compound]
cell damage / cytotoxicity (in words) (MT-4 cells [3]): caused cell damage
anti-AIDS virus activity (in words) ([2]; cell-level test): not to possess effective anti-AIDS virus activity

COc1ccccc1O [sample 1, Guaiacol]
concentration up to which cell damage was observed (MT-4 cells [3]; 3-day incubation): 250 µg/mL
concentration up to which cell damage was observed (MT-4 cells [3]; 6-day incubation): 250 µg/mL
Minimum inhibitory concentration (MIC) ([4]; Type B, liquid samples, stock 10 μl/ml guaiacol, 2 μl/ml 2,6-dimethoxyphenol): 3.8 μl/ml
Minimum inhibitory concentration (MIC) ([5]; H3N2, liquid samples, stock 10 μl/ml guaiacol, 2 μl/ml 2,6-dimethoxyphenol): 1.9 μl/ml
lowest sample concentration (circle-marked well) at which AIDS virus growth was inhibited completely (100%) ([2]; 3-day culture): ◯ (31.3) μg/ml
lowest sample concentration (circle-marked well) at which AIDS virus growth was inhibited completely (100%) ([2]; 3-day culture, listed as guaiacol): 31.3 µg/mL
lowest sample concentration (circle-marked well) at which AIDS virus growth was inhibited completely (100%) ([2]; 6-day culture): ◯ (125) μg/ml
lowest sample concentration (circle-marked well) at which AIDS virus growth was inhibited completely (100%) ([2]; 6-day culture, listed as guaiacol): 125 µg/mL
toxicity level in a human (ORL-HMN) [6]: 43 mg/kg
Minimum inhibitory concentration (MIC) [7, 9]: 3.8 μl/ml

COc1cccc(OC)c1O [sample 3, 2,6-dimethoxyphenol]
effect against influenza virus (in words) [8]: not effective
lowest sample concentration (circle-marked well) at which AIDS virus growth was inhibited completely (100%) ([2]; 3-day culture): ◯ (31.3) μg/ml
lowest sample concentration (circle-marked well) at which AIDS virus growth was inhibited completely (100%) ([2]; 6-day culture): ◯ (31.3) μg/ml
Minimum inhibitory concentration (MIC) [7, 9]: > 1.0 μl/ml

COc1cc(O)cc(OC)c1 [sample 4, 3,5-dimethoxyphenol]
well up to which cell damage was observed (MT-4 cells [3]; 6-day incubation, well number): 3 (250)
cell damage when 3,4-dimethoxyphenol was added to the sample (MT-4 cells [3]; ratio of 1:1, anti-viral effect not reduced): only in the first well
MIC ([4]; Type B, stock 10 mg/ml, read when virus multiplied to 100 TCID (3-4 days)): 3800 µg/mL (≈ 24.6 mM)
MIC [5, 10]: 1900 µg/mL (≈ 12.3 mM)
lowest sample concentration (circle-marked well) at which AIDS virus growth was inhibited completely (100%) ([2]; 3-day culture): ◯ (125) μg/ml
lowest sample concentration (circle-marked well) at which AIDS virus growth was inhibited completely (100%) ([2]; 6-day culture): ◯ (125) μg/ml
lowest sample concentration (circle-marked well) at which AIDS virus growth was inhibited completely (100%) ([2]; 6-day culture, listed as 3,5-dimethoxyphenol): 125 µg/mL
MIC [7, 11]: 5000 µg/mL (≈ 32.4 mM)

COc1cc(C(O)C(CO)Oc2ccccc2OC)ccc1OCc1ccccc1 (stereo not drawn) [sample 12, 4-benzyloxyguaiacylglycerol-β-guaiacylether]
dilution of 8% solution giving complete growth inhibition (E. coli O157): <40-fold
dilution of 8% solution giving complete growth inhibition (P. aerginos): <40-fold
dilution of 8% solution giving complete growth inhibition (S. Enteritidis): <40-fold
Minimum inhibitory concentration (MIC) [4]: 2.5 mg/mL (≈ 6.09 mM)
dilution of 8% solution giving complete growth inhibition (K. pneumoniae): <40-fold
Minimum inhibitory concentration (MIC) [5, 10]: 2.5 mg/mL (≈ 6.09 mM)
viral (inhibitory) activity against AIDS virus ([2]; 6th day of culture): 125 μl/ml
dilution of 8% solution giving complete growth inhibition (S. aureus): <40-fold
Minimum inhibitory concentration (MIC) [7, 11]: 8.0 mg/mL (≈ 19.5 mM)
dilution of 8% solution giving complete growth inhibition (B. subtilis): <40-fold

COc1cc(C=O)cc(OC)c1O [sample 13, Syringaldehyde]
dilution of 8% solution giving complete growth inhibition (E. coli O157): <40-fold
dilution of 8% solution giving complete growth inhibition (P. aerginos): <40-fold
dilution of 8% solution giving complete growth inhibition (S. Enteritidis): <40 fold
cell damage / cytotoxicity (in words) (MT-4 cells [3]): severe cell damage
MIC [4]: 3800 µg/mL (≈ 20.9 mM)
dilution of 8% solution giving complete growth inhibition (K. pneumoniae): <40-fold
MIC [5]: 1900 µg/mL (≈ 10.4 mM)
lowest sample concentration (circle-marked well) at which AIDS virus growth was inhibited completely (100%) ([2]; 6-day culture): 3.91 µg/mL
dilution of 8% solution giving complete growth inhibition (S. aureus): <40-fold
MIC [7]: 3800 µg/mL (≈ 20.9 mM)
dilution of 8% solution giving complete growth inhibition (B. subtilis): <40-fold

Lignosulfonic acid sodium salt [sample 5]
cell damage (MDCK cells): not seen

Lignosulfonic acid sodium salt acetate [sample 6]
cell damage (MDCK cells): not seen
side effects (influenza virus): not seen
